The values below come from patent publication US20230257372A1 (CHONG KUN DANG PHARMACEUTICAL CORP., priority 2020, published 2023).

Structures are written as SMILES. Like-named read-outs stand apart in the source and are kept apart here.

Assay [1] deals with T1, human recombinant HDAC1 (Homo sapiens, UniProt Q13547).
T1 construct: purchased Enzo Life Science, Inc. BML-SE456
Briefly: HDAC1 enzyme activity inhibition (HDAC Fluorimetric Drug Discovery Kit). The settings on record: read-out: HDAC1. The class given is biochemical. The method in brief: (§1)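 Each isoform is run in the same format: compound dilutions (5-fold steps), 10 μM substrate, […] enzyme, one hour at 30° C, then 30 minutes with developer before fluorescence readout.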

Assay [2] deals with T2, human recombinant HDAC6 (Homo sapiens, UniProt Q9UBN7).
T2 construct: purchased Calbiochem Inc. 382180
T2 sequence (Q9UBN7 1-1215): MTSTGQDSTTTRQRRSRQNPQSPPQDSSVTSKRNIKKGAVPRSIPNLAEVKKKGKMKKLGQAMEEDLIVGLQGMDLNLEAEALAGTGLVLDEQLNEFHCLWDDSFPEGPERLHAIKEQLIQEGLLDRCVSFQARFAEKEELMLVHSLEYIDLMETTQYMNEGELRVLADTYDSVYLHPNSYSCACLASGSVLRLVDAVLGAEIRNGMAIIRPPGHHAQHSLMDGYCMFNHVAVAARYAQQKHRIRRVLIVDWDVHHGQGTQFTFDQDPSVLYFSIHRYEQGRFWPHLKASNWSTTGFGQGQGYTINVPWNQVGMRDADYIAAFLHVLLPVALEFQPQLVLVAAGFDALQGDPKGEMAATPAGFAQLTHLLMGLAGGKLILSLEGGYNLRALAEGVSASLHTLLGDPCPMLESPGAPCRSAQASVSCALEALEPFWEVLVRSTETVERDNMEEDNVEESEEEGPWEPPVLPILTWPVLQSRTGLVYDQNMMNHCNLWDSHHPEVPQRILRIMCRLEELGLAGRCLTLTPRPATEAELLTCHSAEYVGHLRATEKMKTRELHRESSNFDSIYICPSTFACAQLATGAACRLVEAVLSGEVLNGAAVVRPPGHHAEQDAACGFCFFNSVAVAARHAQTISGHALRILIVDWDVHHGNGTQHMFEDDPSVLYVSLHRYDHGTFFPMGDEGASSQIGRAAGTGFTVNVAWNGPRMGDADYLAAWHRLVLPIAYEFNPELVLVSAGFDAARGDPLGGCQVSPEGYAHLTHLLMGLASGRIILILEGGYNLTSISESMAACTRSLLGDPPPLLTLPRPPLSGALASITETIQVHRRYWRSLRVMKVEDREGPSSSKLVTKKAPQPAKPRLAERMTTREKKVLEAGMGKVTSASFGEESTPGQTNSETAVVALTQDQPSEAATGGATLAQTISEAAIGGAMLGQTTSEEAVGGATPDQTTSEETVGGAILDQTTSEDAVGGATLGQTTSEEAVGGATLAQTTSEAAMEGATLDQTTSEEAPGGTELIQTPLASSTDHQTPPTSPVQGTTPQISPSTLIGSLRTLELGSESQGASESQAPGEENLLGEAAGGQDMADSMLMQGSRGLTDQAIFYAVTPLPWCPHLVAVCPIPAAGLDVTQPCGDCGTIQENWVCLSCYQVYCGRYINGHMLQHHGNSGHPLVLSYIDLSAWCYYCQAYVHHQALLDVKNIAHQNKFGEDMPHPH
Briefly: HDAC6 enzyme activity inhibition (HDAC Fluorimetric Drug Discovery Kit). The class given is biochemical. An outline of the steps:
as §1

Where [3] appears, read: human recombinant HDAC1, IC50 calculated with GraphPad Prism.
Setting [4] is: human recombinant HDAC6, IC50 calculated with GraphPad Prism.
Setting [5] is: human recombinant HDAC1, Fluor de Lys substrate, 30° C. 60 minutes.
Setting [6] is: human recombinant HDAC6, same protocol as HDAC1.

T1 sequence (Q13547 whole entry): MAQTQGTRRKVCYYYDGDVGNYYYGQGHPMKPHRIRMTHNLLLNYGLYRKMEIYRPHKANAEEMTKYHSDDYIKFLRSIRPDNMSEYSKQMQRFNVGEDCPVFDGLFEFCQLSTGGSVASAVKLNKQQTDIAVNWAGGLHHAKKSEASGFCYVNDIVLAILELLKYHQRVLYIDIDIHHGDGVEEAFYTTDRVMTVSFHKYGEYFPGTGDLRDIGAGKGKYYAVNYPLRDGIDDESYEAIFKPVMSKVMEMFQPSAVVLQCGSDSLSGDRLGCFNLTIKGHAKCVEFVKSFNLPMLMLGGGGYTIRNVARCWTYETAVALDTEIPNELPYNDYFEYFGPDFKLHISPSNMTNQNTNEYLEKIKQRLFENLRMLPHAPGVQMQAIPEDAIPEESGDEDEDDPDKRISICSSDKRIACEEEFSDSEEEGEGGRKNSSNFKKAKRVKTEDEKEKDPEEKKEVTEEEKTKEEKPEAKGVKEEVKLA

With `OCCCc1cn(Cc2ccc(-c3nnc(C(F)F)o3)cn2)nn1` [Compound 3833, 3-(1-((5-(5-(difluoromethyl)-1,3,4-oxadiazol-2-yl)pyridin-2-yl)methyl)-1H-1,2,3-triazol-4-yl)propan-1-ol], the IC50 is above 50000 nM in assay [1] (setting [3]) and 424 nM in assay [2] (setting [4]). For the same compound, in assay [2] (HDAC1 IC50 / HDAC6 IC50), the “HDAC6 selectivity (fold)” value worked out at 117 fold.

As for `CN1CCc2cc(-c3cn(Cc4ccc(-c5nnc(C(F)F)o5)cn4)nn3)ccc2C1` [Compound 4051, 2-(difluoromethyl)-5-(6-((4-(2-methyl-1,2,3,4-tetrahydroisoquinolin-6-yl)-1H-1,2,3-triazol-1-yl)methyl)pyridin-3-yl)-1,3,4-oxadiazole], the IC50 in assay [1] (setting [3]) was above 50000 nM; in assay [2] (setting [4]), 30.8 nM. The “HDAC6 selectivity (fold)” value in assay [2] (HDAC1 IC50 / HDAC6 IC50) stood at 1623 fold.

Turning to `FC(F)c1nnc(-c2ccc(Cn3cc(-c4cccc(CN5CC(F)(F)C5)c4)nn3)cc2)o1` [Compound 4417, 2-(4-((4-(3-((3,3-difluoroazetidin-1-yl)methyl)phenyl)-1H-1,2,3-triazol-1-yl)methyl)phenyl)-5-(difluoromethyl)-1,3,4-oxadiazole], the IC50 in assay [1] (setting [3]) is above 50000 nM; in assay [2] (setting [4]), 102 nM. The “HDAC6 selectivity (fold)” value in assay [2] (HDAC1 IC50 / HDAC6 IC50) worked out at 487 fold.

Turning to `CN1C[C@@H]2C[C@H]1CN2c1cccc(-c2cn(Cc3ccc(-c4nnc(C(F)F)o4)cc3F)nn2)c1` [Compound 4318, 2-(difluoromethyl)-5-(3-fluoro-4-((4-(3-((1S,4S)-5-methyl-2,5-diazabicyclo[2.2.1]heptan-2-yl)phenyl)-1H-1,2,3-triazol-1-yl)methyl)phenyl)-1,3,4-oxadiazole], the IC50 in assay [1] (setting [3]) was above 50000 nM; in assay [2] (setting [4]) it was 36.4 nM. The “HDAC6 selectivity (fold)” value in assay [2] (HDAC1 IC50 / HDAC6 IC50) came to 1373 fold.

On to `Fc1cc(-c2nnc(C(F)F)o2)ccc1Cn1cc(-c2ccc(CN3CCC3)nc2)nn1` [Compound 18174, 2-(4-((4-(6-(azetidin-1-ylmethyl)pyridin-3-yl)-1H-1,2,3-triazol-1-yl)methyl)-3-fluorophenyl)-5-(difluoromethyl)-1,3,4-oxadiazole], for which the IC50 in assay [1] (setting [5]) was above 50000 nM; in assay [2] (setting [6]) it was 51 nM. Further, the “HDAC6 selectivity (fold)” value in assay [2] (HDAC6 over HDAC1) came to 980 fold.

As for `FC(F)c1nnc(-c2ccc(Cn3cnc(-c4ccccc4)c3)nc2)o1` [Compound 3950, 2-(difluoromethyl)-5-(6-((4-phenyl-1H-imidazol-1-yl)methyl)pyridin-3-yl)-1,3,4-oxadiazole], the IC50 in assay [1] (setting [3]) was above 50000 nM; in assay [2] (setting [4]), 52.4 nM. Further, the “HDAC6 selectivity (fold)” value in assay [2] (HDAC1 IC50 / HDAC6 IC50) is on record as 954 fold.

As for `CCN1CCN(c2ccc(F)c(-c3cn(Cc4ccc(-c5nnc(C(F)F)o5)cc4)nn3)c2)CC1` [Compound 4452, 2-(difluoromethyl)-5-(4-((4-(5-(4-ethylpiperazin-1-yl)-2-fluorophenyl)-1H-1,2,3-triazol-1-yl)methyl)phenyl)-1,3,4-oxadiazole], the IC50 in assay [1] (setting [3]) was above 50000 nM; in assay [2] (setting [4]) it was 20.3 nM. Besides, in assay [2] (HDAC1 IC50 / HDAC6 IC50), the “HDAC6 selectivity (fold)” value is reported as 2463 fold.

`CCN1Cc2cccc(-c3cn(Cc4ccc(-c5nnc(C(F)F)o5)cn4)nn3)c2C1` [Compound 4596, 2-(difluoromethyl)-5-(6-((4-(2-ethylisoindolin-4-yl)-1H-1,2,3-triazol-1-yl)methyl)pyridin-3-yl)-1,3,4-oxadiazole]: the figures for the IC50 in assay [1] (setting [5]) and in assay [2] (setting [6]) were above 50000 nM and 63.9 nM, respectively. Moreover, the “HDAC6 selectivity (fold)” value in assay [2] (HDAC6 over HDAC1) came to 782 fold.

As to `FC(F)c1nnc(-c2ccc(Cn3cc(-c4cccc(CN5CC6(COC6)C5)c4)nn3)nc2)o1` [Compound 3965, 6-(3-(1-((5-(5-(difluoromethyl)-1,3,4-oxadiazol-2-yl)pyridin-2-yl)methyl)-1H-1,2,3-triazol-4-yl)benzyl)-2-oxa-6-azaspiro[3.3]heptane], the IC50 was above 50000 nM in assay [1] (setting [3]) and 35.9 nM in assay [2] (setting [4]). For the same compound, the “HDAC6 selectivity (fold)” value in assay [2] (HDAC1 IC50 / HDAC6 IC50) amounted to 1392 fold.

For the compound `CCC(F)(CC)CN1CCC(c2cn(Cc3ccc(-c4nnc(C(F)F)o4)cn3)nn2)CC1` [Compound 3896, 2-(difluoromethyl)-5-(6-((4-(1-(2-ethyl-2-fluorobutyl)piperidin-4-yl)-1H-1,2,3-triazol-1-yl)methyl)pyridin-3-yl)-1,3,4-oxadiazole], the IC50 in assay [1] (setting [3]) is above 50000 nM; in assay [2] (setting [4]), 267 nM. Moreover, the “HDAC6 selectivity (fold)” value in assay [2] (HDAC1 IC50 / HDAC6 IC50) is 187 fold.

For `CN(C)Cc1ccc(-c2cn(Cc3ncc(-c4nnc(C(F)F)o4)cc3F)nn2)cc1F` [Compound 18949, 1-(4-(1-((5-(5-(difluoromethyl)-1,3,4-oxadiazol-2-yl)-3-fluoropyridin-2-yl)methyl)-1H-1,2,3-triazol-4-yl)-2-fluorophenyl)-N,N-dimethylmethanamine], the IC50 was above 50000 nM in assay [1] (setting [5]) and 65.8 nM in assay [2] (setting [6]). Moreover, the “HDAC6 selectivity (fold)” value in assay [2] (HDAC6 over HDAC1) came to 759 fold.

Take `CC(C)N1CCC(c2cn(Cc3ccc(-c4nnc(C(F)F)o4)cn3)nn2)CC1` [Compound 3808, 2-(difluoromethyl)-5-(6-((4-(1-isopropylpiperidin-4-yl)-1H-1,2,3-triazol-1-yl)methyl)pyridin-3-yl)-1,3,4-oxadiazole]: the values for the IC50 in assay [1] (setting [3]) and in assay [2] (setting [4]) were above 50000 nM and 348 nM, respectively. In addition, the “HDAC6 selectivity (fold)” value in assay [2] (HDAC1 IC50 / HDAC6 IC50) is listed as 143 fold.

Turning to `CCCN1CCC(Nc2cccc(-c3cn(Cc4ccc(-c5nnc(C(F)F)o5)cc4F)nn3)c2F)CC1` [Compound 4434, N-(3-(1-(4-(5-(difluoromethyl)-1,3,4-oxadiazol-2-yl)-2-fluorobenzyl)-1H-1,2,3-triazol-4-yl)-2-fluorophenyl)-1-propylpiperidin-4-amine], the IC50 in assay [1] (setting [3]) was above 50000 nM; in assay [2] (setting [4]), 20.9 nM. Also, the “HDAC6 selectivity (fold)” value in assay [2] (HDAC1 IC50 / HDAC6 IC50) worked out at 2392 fold.

For the compound `FC(F)c1nnc(-c2ccc(Cn3cc(-c4ccnc(N5CCN(C6COC6)CC5)c4)nn3)nc2)o1` [Compound 4594, 2-(difluoromethyl)-5-(6-((4-(2-(4-(oxetan-3-yl)piperazin-1-yl)pyridin-4-yl)-1H-1,2,3-triazol-1-yl)methyl)pyridin-3-yl)-1,3,4-oxadiazole], the IC50 in assay [1] (setting [5]) was above 50000 nM; in assay [2] (setting [6]) it was 24.3 nM. For the same compound, the “HDAC6 selectivity (fold)” value in assay [2] (HDAC6 over HDAC1) was determined as 2057 fold.

Take `Fc1cc(-c2nnc(C(F)F)o2)cnc1Cn1cc(-c2ccc3[nH]ncc3c2)nn1` [Compound 18920, 2-(6-((4-(1H-indazol-5-yl)-1H-1,2,3-triazol-1-yl)methyl)-5-fluoropyridin-3-yl)-5-(difluoromethyl)-1,3,4-oxadiazole]: the results for the IC50 in assay [1] (setting [5]) and in assay [2] (setting [6]) were above 50000 nM and 42 nM, respectively. Besides, the “HDAC6 selectivity (fold)” value in assay [2] (HDAC6 over HDAC1) is 1190 fold.

On to `Fc1cc(-c2nnc(C(F)F)o2)ccc1Cn1cc(-c2ccc(CN3CC[C@@H](F)C3)cc2)nn1` [Compound 4607, (R)-2-(difluoromethyl)-5-(3-fluoro-4-((4-(4-((3-fluoropyrrolidin-1-yl)methyl)phenyl)-1H-1,2,3-triazol-1-yl)methyl)phenyl)-1,3,4-oxadiazole], for which the IC50 in assay [1] (setting [5]) was above 50000 nM; in assay [2] (setting [6]), 19.9 nM. In addition, in assay [2] (HDAC6 over HDAC1), the “HDAC6 selectivity (fold)” value was found to be 2512 fold.

In the case of `CCCN1CCN(c2cccc(-c3cn(Cc4ccc(-c5nnc(C(F)F)o5)cc4)nn3)c2)CC1` [Compound 4369, 2-(difluoromethyl)-5-(4-((4-(3-(4-propylpiperazin-1-yl)phenyl)-1H-1,2,3-triazol-1-yl)methyl)phenyl)-1,3,4-oxadiazole], the IC50 in assay [1] (setting [3]) is above 50000 nM; in assay [2] (setting [4]), 54.8 nM. The “HDAC6 selectivity (fold)” value in assay [2] (HDAC1 IC50 / HDAC6 IC50) amounted to 912 fold.

On to `Fc1ccc(N2CCNCC2)cc1-c1cn(Cc2ccc(-c3nnc(C(F)F)o3)cc2)nn1` [Compound 4450, 2-(difluoromethyl)-5-(4-((4-(2-fluoro-5-(piperazin-1-yl)phenyl)-1H-1,2,3-triazol-1-yl)methyl)phenyl)-1,3,4-oxadiazole], for which the IC50 in assay [1] (setting [3]) was above 50000 nM; in assay [2] (setting [4]) it was 19.2 nM. Also, the “HDAC6 selectivity (fold)” value in assay [2] (HDAC1 IC50 / HDAC6 IC50) was determined as 2604 fold.
